Like-named read-outs stand apart in the source and are kept apart here.

The target in series [1] is recombinant human LMPTP-A (Homo sapiens (Human), UniProt P24666). The series is described as follows: isothermal calorimetry (ITC) binding. On the procedure:
ML400 analog G53 (Table A) binds to LMPTP. ITC was performed using recombinant human LMPTP-A and a derivative of Compound D1, G53. Kd=0.9 microM.

For series [2], the target named is LMPTP-A (Low Molecular Weight Protein Tyrosine Phosphatase-A) enzyme (Homo sapiens (Human), UniProt P24666). The series is described as follows: LMPTP primary screening / LMPTP (OMFP) enzyme inhibition assay, fluorescence intensity. It counts as biochemical. Summed up: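 Single-concentration screen, test compounds 20 μM final, […]. Enzyme (0.625 nM) and OMFP (400 μM) react 50 min at room temp, dark, in Bis-Tris buffer pH 6.0 containing DTT 1 mM and Triton X-100 0.01%. Read-out: fluorescence intensity.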
Sequence of LMPTP-A (Low Molecular Weight Protein Tyrosine Phosphatase-A) enzyme (P24666 whole entry): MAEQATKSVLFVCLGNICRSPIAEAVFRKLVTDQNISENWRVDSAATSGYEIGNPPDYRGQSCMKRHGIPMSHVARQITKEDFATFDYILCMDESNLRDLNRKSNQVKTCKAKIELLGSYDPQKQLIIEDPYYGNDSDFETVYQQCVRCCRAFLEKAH

A short description of series [3]: hepatic microsomal stability, human liver microsomes. Format: in vitro ADME. To be noted: Human microsomes, 1 hr. The source says: (§1) In the course of this investigation many compounds with similar potencies in the LMPTP (OMFP) assay were found. In order to determine which compound would be the best candidate for in vivo studies, an abbreviated ADME panel was ran on these compounds, a tabulation of the most interesting data on this set of compounds is illustrated in Table 3 below. From the hepatic microsome stability data the candidate selected for in vivo studies was Compound D1.
(§2) The microsomal stability assay is commonly used to rank compounds according to their metabolic stability. This assay addresses the pharmacologic question of how long the parent compound will remain circulating in plasma within the body.
On the technique in general: Liver microsomes are vesicles of endoplasmic reticulum, rich in cytochrome P450 enzymes.

Series [4] can be described thus: hepatic microsomal stability, mouse liver microsomes. Format: in vitro ADME. The following applies: Mouse microsomes, 1 hr.
Source text: as §1, §2

Series [5] can be described thus: plasma stability, mouse plasma. It counts as in vitro ADME. The following applies: Mouse plasma, 3 hrs. From the text: (§3) Plasma stability is a measure of the stability of small molecules and peptides in plasma and is an important parameter, which can strongly influence the in vivo efficacy of a test compound. Drug candidates are exposed to enzymatic processes (proteinases. esterases) in plasma, and they can undergo intramolecular rearrangement or bind irreversibly (covalently) to proteins.

Series [6] is described as follows: aqueous solubility (buffer pH 5.0-7.4, PBS). It counts as physicochemical.
Series [7] in a line: plasma stability, human plasma. Format: in vitro ADME. To be noted: Human plasma, 3 hrs.
Source text: as §3

Series [8] relates to insulin receptor in HepG2 cells. To be noted: 10 microM compound overnight, insulin 5 min.
Where [9] appears, read: LMPTP-A, OMFP substrate, method of Example 2, read-out: IC50.

Sequence of recombinant human LMPTP-A (P24666 whole entry): as above

`COc1ccc(-c2cc(Nc3cccc(CC4CCNCC4)c3)c3ccccc3n2)cc1` [Compound G53, [2-(4-methoxyphenyl)(4-quinolyl)][3-(4-piperidylmethyl)phenyl]amine]: the Kd (usually the concentration at which binding is half-saturated) in series [1] was 900 nM. Moreover, the IC50 (usually the concentration at which inhibition is half-maximal) in series [2] (setting [9]) was in the range of 0.801 to 5 µM.
For `c1ccc(-c2cc(NCCN3CCCCC3)c3ccccc3n2)cc1` [Entry 41], the entries for the “Hepatic Microsome Stability % Remaining @ 1 hr” value in series [3] and in series [4] were 26.54% and 0.38%, respectively. For the same molecule, the “Plasma Stability % Remaining @ 3 hrs” value is 62.25% in series [5] and 70.08% in series [7]. Further, the “Aqueous Solubility Pion's buffer” value in series [6] (pH 5.0) amounted to 111.8 µg/mL; in series [6] (pH 6.2), 95.7 µg/mL; in series [6] (pH 7.4), 54.5 µg/mL. Besides, the IC50 in series [2] (Table 2 quinoline series, CP sample (cherry pick of DMSO solution from NIH MLSMR), read-out: LMPTP (OMFP) (IC50)) was 3.49 µM; in series [2] (Table 2 quinoline series, P sample (purchased from commercial sources), read-out: LMPTP (OMFP) (IC50)), 2.86 µM; in series [2] (Table 2 quinoline series, S sample (synthesized de novo), read-out: LMPTP (OMFP) (IC50)), 3.7 µM; in series [2] (initial screening hits (Scheme 4), read-out: IC50), 3.49 µM; in series [2] (purchased compound, read-out: LMPTP (OMFP) IC50), 2.86 µM; in series [2] (synthesized compound, read-out: LMPTP (OMFP) IC50), 3.7 µM. For the same molecule, the “phosphorylation of the insulin receptor” value in series [8] is on record as “increases phosphorylation of the insulin receptor”.
As for `CN(C)Cc1ccc(Nc2cc(-c3cccc(Cl)c3)nc3ccccc23)cc1` [Compound I16, [(4-{[2-(3-chlorophenyl)(4-quinolyl)]amino}phenyl)methyl]dimethylamine], the IC50 in series [2] (setting [9]) fell in the range of 0.801 to 5 µM.
As for `c1ccc(-c2cc(NCCCN3CCOCC3)c3ccccc3n2)cc1` [Compound I179, (3-morpholin-4-ylpropyl)(2-phenyl(4-quinolyl))amine], the IC50 in series [2] (setting [9]) is above 5 µM.
Regarding `COc1ccc(-c2cc(Nc3ccccc3)c3ccccc3n2)cc1` [Compound G35, [2-(4-Methoxy-phenyl)-quinolin-4-yl]-phenyl-amine], the IC50 in series [2] (setting [9]) was 0.801 to 5 µM.
On to `c1ccc2c(NCCCN3CCCCC3)cc(-c3ccc4c(c3)OCCO4)nc2c1` [Compound I125], for which the IC50 in series [2] (setting [9]) lay within 0.801 to 5 µM.
Still for that read-out and setting: for `Fc1cccc(-c2cc(NCCCN3CCCCC3)c3ccccc3n2)c1C(F)(F)F` [Compound I223] the value was 0.801 to 5 µM; for `Fc1ccccc1-c1cc(NCCCN2CCCCC2)c2ccccc2n1` [Compound G6, [2-(2-Fluoro-phenyl)-quinolin-4-yl]-(3-piperidin-1-yl-propyl)-amine], 0.801 to 5 µM.
As to “{2-[5-chloro-2-(cyclopropylmethoxy)(3-pyridyl)](4-quinolyl)}(3-piperidylpropyl)amine [Compound I95]”, in series [2] (setting [9]), the concentration for half-maximal inhibition (IC50) was in the range of 0.801 to 5 µM.
For `COc1ccc(-c2cc(NCCCc3ccncc3)c3ccccc3n2)cc1` [Compound I200, [2-(4-methoxyphenyl)(4-quinolyl)](3-(4-pyridyl)propyl)amine], the concentration for half-maximal inhibition (IC50) in series [2] (setting [9]) was 0.801 to 5 µM.
`NCCCNC(=O)c1ccc(-c2cc(NCCCN3CCCCC3)c3ccccc3n2)cc1` [Compound I195]: the IC50 in series [2] (setting [9]) is 0.2 to 0.8 µM.
For the molecule `FC(F)(F)c1ccccc1-c1cc(NCCCN2CCCCC2)c2ccccc2n1` [Compound G1, (3-piperidin-1-yl-propyl)-[2-(2-trifluoromethyl-phenyl)-quinolin-4-yl]-amine], the IC50 in series [2] (setting [9]) is 0.801 to 5 µM.
The same measure, in the same setting: under `COc1ccc(-c2cc(Nc3cccc(CC4CCN(C)CC4)c3)c3ccccc3n2)cc1` [Compound I31, [2-(4-methoxyphenyl)(4-quinolyl)]{3-[(1-methyl(4-piperidyl))methyl]phenyl}amine] stands 0.2 to 0.8 µM; under `CCOc1ccc(C(F)(F)F)c(-c2cc(NCCCN3CCCCC3)c3ccccc3n2)c1` [Compound I105], 0.801 to 5 µM.
On to `CN(C)c1cc(-c2ccoc2)nc2ccccc12` [Compound G15, (2-Furan-3-yl-quinolin-4-yl)-dimethyl-amine], for which the IC50 in series [2] (setting [9]) is above 5 µM.
Consider `COc1ccc(-c2cc(NCCc3ccccn3)c3ccccc3n2)cc1` [Compound I199, [2-(4-methoxyphenyl)(4-quinolyl)](2-(2-pyridyl)ethyl)amine], for which, in series [2] (setting [9]), the IC50 was in the range of 0.801 to 5 µM.
On to `CC(C)C(=O)Nc1ccc(-c2cc(NCCCN3CCCCC3)c3ccccc3n2)cc1` [Compound I56], for which the IC50 in series [2] (setting [9]) is 0.801 to 5 µM.
Regarding `COc1ccc(-c2cc(NCc3ccc(C(F)(F)F)cc3)c3ccccc3n2)cc1` [Compound G81, [2-(4-methoxyphenyl)(4-quinolyl)]{[4-(trifluoromethyl)phenyl]methyl}amine], the IC50 in series [2] (setting [9]) is 0.801 to 5 µM.
Take `COc1ccc(-c2cc(NCc3cccc(C#N)c3)c3ccccc3n2)cc1` [Compound G82, 3-({[2-(4-methoxyphenyl)-4-quinolyl]amino}methyl)benzenecarbonitrile]: the IC50 in series [2] (setting [9]) was in the range of 0.801 to 5 µM.

These data come from US10626094B2 (La Jolla Institute of Allergy & Immunology, priority 2014, dated 2020).
